From US11779015B2, “Pesticide compositions” (FUNDACIÓ CENTRE DE REGULACIÓ GENÒMICA, priority 2017, dated 2023)
Entries after “also recorded” stand apart in the source; their conditions may differ.

Key:
D. suzukii = assay: Airborne toxicity petri dish assay, adult flies exposed to VOC vapours (FIG. 1A); format: in vivo, Drosophila suzukii; details: for time to 100% dead flies: monitored over 1 hour
Experimental: A selection of compounds according to the invention were tested for airborne toxicity to D. suzukii by exposing a population of adult D. suzukii flies to the vapours of the compound using an experimental set up as shown on FIG. 1A.
In particular, adult flies 2 were exposed to compositions 4 comprising one or more of a selection of VOCs according to the invention or a comparative example, in a petri dish 6. The compositions 4 were loaded onto the lid 6a of the petri dish 6 and the flies were placed into the base 6b of the dish, which was then covered by a sheet of plastic mesh netting 8 to avoid direct contact of the flies 2 with the compositions 4, before replacing the lid 6a.
[…] Four drops of 50 microlitres were dispensed into reinforcement rings (not shown) fixed on the inner surface of the petri dish lid 6a.
The experimental set up used was as described in relation to FIG. 1A.
The data is shown as averages±SEM based on 3 to 6 trials for each condition.

adult D. suzukii flies = assay: Petri dish assay, dose-range 0.3 to 10% vol in paraffin oil, 24 h exposure (FIG. 3E); format: in vivo, Drosophila suzukii; details: for concentration at which toxicity is displayed (as low as): dose-range 0.3 to 10% vol in paraffin oil, 24 h exposure, adult D. suzukii; for Minimal concentration (%) to induce 100% morbidity/mortality in D. suzukii adults: paraffin oil, 24 h exposure (Example 2)
Excerpt: Data are represented as mean proportion of dead flies, with counts separated between male (as indicated by ‘M’) and female (as indicated by ‘F’) flies. […] Data points marked NaN were not tested at the indicated concentration. The MEC column summarises the minimal effective concentration to induce 100% morbidity/mortality to adult D. suzukii flies.

[1] = system: honeybees (Apis mellifera); assay: Airborne toxicity on honeybees in the petri dish assay; format: in vivo; details: paraffin oil, 24 hours
[2] = VOC at 10 M in paraffin oil, vapour exposure, 1 hour
[3] = VOC at 10 M in paraffin oil, vapour exposure

Compound | airborne toxicity/lethality in the initial screen with a high dose (words) (D. suzukii; [2]) | other results
CCOC(=O)c1ccccc1 [ethyl benzoate, Ethyl benzoate] | showed toxicity | –
COC(=O)c1ccccc1O [methyl salicylate] | showed toxicity | –
CCCCCCC=O [heptanal, Heptanal] | showed toxicity | –
CCCC/C=C/C=C/C=O [(E,E)-2,4-nonadienal] | showed toxicity | concentration at which toxicity is displayed (as low as) (adult D. suzukii flies): 2%; Minimal concentration (%) to induce 100% morbidity/mortality in D. suzukii adults (adult D. suzukii flies): 2%; Percentage of dead honey bee adults (%) ([1]; applied concentration 2%): 0%; Percentage of dead honey bee adults (%) ([1]; applied concentration 5%): 0%
C=CCOC(=O)C1=CCCC1 [allyl 1-cyclopentene-1-carboxylate, Allyl 1-cyclopentene-1-carboxylate] | showed toxicity | concentration at which toxicity is displayed (as low as) (adult D. suzukii flies): 0.3%; Minimal concentration (%) to induce 100% morbidity/mortality in D. suzukii adults (adult D. suzukii flies): 0.5%; Percentage of dead honey bee adults (%) ([1]; applied concentration 1%): 0%
CCC(C)C(=O)OC (centres unmarked) [methyl 2-methylbutyrate, Methyl 2-methyl butyrate] | showed toxicity | –
CCCCCOC(=O)c1ccccc1 [pentyl benzoate, Pentyl benzoate] | showed toxicity | time to 100% dead flies (D. suzukii; [3]): an hour
CCCCC/C=C/C=O [E-2-octenal] | showed toxicity | concentration at which toxicity is displayed (as low as) (adult D. suzukii flies): 2%
CCCCCCO [1-hexanol] | showed toxicity | –
CCCC/C=C/C=O [(E)-2-heptenal] | showed toxicity | Minimal concentration (%) to induce 100% morbidity/mortality in D. suzukii adults (adult D. suzukii flies): 3%; Percentage of dead honey bee adults (%) ([1]; applied concentration 3%): 0%
CCCCCCC/C=C/C=O [E-2-decenal] | – | Percentage of dead honey bee adults (%) ([1]; applied concentration 2%): 0%
CCCOC(=O)c1ccccc1 [propyl benzoate, Propyl benzoate] | showed toxicity | –
COC(=O)C1CCCC1 [methyl cyclopentanecarboxylate, Methyl cyclopentanecarboxylate] | showed toxicity | –
CC1=C(O)C(=O)OC1C (centres unmarked) [4,5-Dimethyl-3-hydroxy-2,5-dihydrofuran-2-one, reference compound] | showed toxicity | –
CCCCOC(=O)C1CCCC1 [butyl cyclopentanecarboxylate, Butyl cyclopentanecarboxylate] | showed toxicity | Minimal concentration (%) to induce 100% morbidity/mortality in D. suzukii adults (adult D. suzukii flies): 3%; Percentage of dead honey bee adults (%) ([1]; applied concentration 3%): 0%
CCCCCCCCC/C=C/C=O [E-2-dodecenal] | showed toxicity | –
CC=CC(=O)CC [4-hexen-3-one] | showed toxicity | Minimal concentration (%) to induce 100% morbidity/mortality in D. suzukii adults (adult D. suzukii flies): 3%; Percentage of dead honey bee adults (%) ([1]; applied concentration 3%): 0%
C=CC(C)(CCC=C(C)C)OC(=O)c1ccccc1 (centres unmarked) [linalyl benzoate, Linalyl benzoate, reference compound] | did not cause mortality; also recorded: not toxic | –

Compound | airborne toxicity/lethality in the initial screen with a high dose (words) (D. suzukii; [2]) | other results
O=C(OCc1ccccc1)c1ccccc1O [benzyl salicylate, Benzyl salicylate, reference compound] | did not cause mortality; also recorded: not toxic | –
CC(=O)c1ccccc1 [acetophenone, Acetophenone] | showed toxicity | –
CCC=C(C)C=O [2-methyl-2-pentenal] | showed toxicity | –
CCCCCCCCC=O [nonanal, Nonanal] | showed toxicity | Minimal concentration (%) to induce 100% morbidity/mortality in D. suzukii adults (adult D. suzukii flies): 3%; Percentage of dead honey bee adults (%) ([1]; applied concentration 3%): 0%
CCCCCCCC/C=C/C=O [E-2-undecenal] | showed toxicity | –
O=Cc1ccccc1 [benzaldehyde, Benzaldehyde] | showed toxicity | –
CC/C=C/C=O [(E)-2-pentenal] | showed toxicity | –
CCCCCC(C)=O [2-heptanone] | showed toxicity | –
CCCCC=O [pentanal, Pentanal] | showed toxicity | –
O=C(OCc1ccccc1)c1ccccc1 [benzyl benzoate, Benzyl benzoate, reference compound] | did not cause mortality | airborne toxicity/lethality in the initial screen with a high dose (words) (D. suzukii; VOC at 10 M in paraffin oil, vapour exposure, 1 hour, listed as Benzyl benzoate): not toxic
CCCCCCCC=O [octanal, Octanal] | showed toxicity | –
CC/C=C/CCO [E-3-hexenol] | – | airborne toxicity/lethality in the initial screen with a high dose (words) (D. suzukii; in vivo): showed toxicity
CCCCCC/C=C/C=O [E-2-nonenal] | showed toxicity | concentration at which toxicity is displayed (as low as) (adult D. suzukii flies): 2%
CC(C)OC(=O)C1CCCC1 [isopropyl cyclopentanecarboxylate, Isopropyl cyclopentanecarboxylate] | showed toxicity | –
CCCCCCCCCC/C=C/C=O [E-2-tridecenal] | showed toxicity | time to 100% dead flies (D. suzukii; [3]): an hour
COC(=O)C1CCCCC1 [methyl cyclohexanoate] | showed toxicity | –
CCOC(=O)Cc1ccccc1 [ethyl phenyl acetate, Ethyl phenylacetate] | showed toxicity | time to 100% dead flies (D. suzukii; [3]): half an hour
CC/C=C\CC/C=C/C=O [(E)-2,(Z)-6-nonadienal, trans-2,cis-6-Nonadienal] | showed toxicity | Minimal concentration (%) to induce 100% morbidity/mortality in D. suzukii adults (adult D. suzukii flies): 3%; Percentage of dead honey bee adults (%) ([1]; applied concentration 3%): 10%
